This note sets out measurements from patent US9586896B2, “Nitroxyl donors with improved therapeutic index” (Cardioxyl Pharmaceuticals, Inc., priority 2013, dated 2017).

The nature of data set [1]: In vitro stability (half-life) in PBS pH 7.4. Conditions: pH 7.4, aerated PBS pH 7.4, 37° C., read-out: T1/2 (minutes) PBS. The format is physicochemical. The method, then:
Compound (1), compound (2), and CXL-1020 were tested for their stability in plasma. The assay system comprised (i) PBS, or plasma from rat, dog or human (at least 3 donors, male, pooled) at pH 7.4, and (ii) for tests conducted in plasma, an anticoagulant (sodium heparin or sodium citrate). Each test compound (5 μM) was incubated in PBS or plasma at 37° C. on a THERMOMIXER® with shaking Three samples (n=3) were taken at each of seven sampling time points: 0, 10, 30, 60, 90, 180 and 360 minutes. The samples were immediately combined with 3 volumes (i.e., 3 times the volume of PBS or plasma) of acetonitrile containing 1% formic acid and an internal standard to terminate the reaction. AB SCIEX API 3000 LC-MS/MS analysis of the test compounds was performed without a standard curve. Half-lives (T1/2) of the test compounds were determined from graphs of the percent remaining values using the peak area response ratio.

The test system of data set [2] is heart failure canines (tachycardia-pacing model). Put plainly: Hemodynamic efficacy in heart failure canines (tachycardia-pacing model). The format is in vivo, beagle dogs. Conditions: for hemodynamic activity relative to CXL-1020: both normal and failing canine models; for hemodynamic effects produced: normal and failing canine models, FIGS. 1-2. The method, then: The cardiovascular effects of nitroxyl donors were examined by means of pressure-volume (PV) curve (loops) analysis in conscious, sling-restrained beagle dogs. Animals were allowed free access to drinking water and a commercial canine diet under standard laboratory conditions. Fluorescent lighting was provided via an automatic timer for approximately 12 hours per day. On occasion, the dark cycle was interrupted intermittently due to study-related activities. Temperature and humidity were monitored and recorded daily and maintained to the maximum extent possible between 64° F. and 84° F. and 30% to 70%, respectively. The dogs were acclimated for a period of at least 1 week prior to surgery. Following surgery and recovery the animals were acclimated to sling restraint for a period up to 4.5 hours. Animals were fasted overnight prior to surgery.
Once a stable (surgical) plane of anesthesia had been established, a left-thoracotomy was performed (under strict aseptic conditions) and each animal was chronically instrumented with sono-micrometry crystals providing left-ventricular (LV) dimensions/volume. Additionally, a fluid-filled catheter and a solid-state monometer were placed in the left ventricle for pressure monitoring. A fluid-filled catheter was placed in the right ventricle (RV) and the aorta (Ao) for pressure monitoring/test article administration. […] The catheters/wires were aseptically tunneled and externalized between the scapulae. Over the course of the study, fluid-filled catheters were regularly (at least once weekly) flushed with a locking-solution in order to prevent both clotting and bacterial growth (2-3 mL of Taurolidine-Citrate solution, TCS-04; Access Technologies).
Following the cardiovascular instrumentation, the right jugular vein was carefully exposed and cannulated with a bipolar pacing lead/catheter (CAPSUREFIX® Novus; Medtronic). Under fluoroscopic guidance, this pacing lead was advanced normograde into the right ventricle and actively affixed (screwed in) to the apical endocardium. The proximal end of the lead was secured to the pacing device (Kappa 900; Medtronic). Subsequently, the pacemaker was placed/secured in a subcutaneous pocket in the neck.
Following a recovery from surgery and/or sufficient washout period from dosing with a nitroxyl donor, animals were subjected to a 3-week overdrive pacing (210 ppm) protocol aimed to trigger left-ventricular dysfunction/remodeling consistent with the heart failure syndrome. In short, via the implanted pacemaker/right-ventricular lead, the ventricle(s) was asynchronously and continuously paced at 210 beats per minute (bpm). Left-ventricular remodeling (and heart failure induction) were confirmed by both echocardiographic (e.g., ejection fraction (EF)) decrease from about 60% to a target of about 35%, left ventricular (LV) dilatation) and neuro-humoral (e.g., N-terminal pro-brain natriuretic peptide (NT proBNP) elevation to greater than 1800 pM/L from a baseline of about 300 pM/L) changes after approximately 3 weeks of pacing. Echocardiographs and blood samples were collected in the absence of pacing (for at least 15 min).
The animals (normal or heart failure) were studied during treatment with both vehicle (control) and a nitroxyl donor (either CXL-1020, a compound of formula (1) or a compound of formula (2)). At each dosing period, conscious sling-restrained animals were continuously monitored for up to two to three hours. Following hemodynamic stabilization, infusion of the vehicle was started. […] Infusion of the vehicle was continued and after 30 min another (baseline) set of hemodynamic data was collected. Following collection of baseline hemodynamic data, infusion of the nitroxyl donor compound being tested was initiated and derived hemodynamic/functional parameters were obtained/performed at up to four (4) time points selected from the following: at 30, 60, 90, 120, and 180 minutes after the onset of vehicle/test compound infusion. […]

Data set [3] has as its system dogs. Put plainly: Microscopic pathology of the vasculature, canine implanted central catheter 72 hour model. It is filed as in vivo, beagle dogs. The note with it: edema, vascular/perivascular inflammation, hemorrhage, molar equivalent dose rates to CXL-1020. The method, then:
Confirmation was obtained through evaluating the nitroxyl donors through detailed histopathology of the vasculature at the site of insertion of into the femoral vein (15 cm distal to the catheter tip), along the catheter track to the catheter tip, and past the tip downstream 20 cm.
A composite lab score was calculated from the sum of these findings scores. In FIG. 5, the cumulative histology composite lab score ranges from 0-2 (low severity) to 11-12 (high severity). […] The NOAEL values determined based on these microscopic pathology markers for a series of nitroxyl donors, expressed in molar equivalent dose rates (μg/kg/min) to CXL-1020, are provided in Table 8.

Where [4] appears, read: heart failure canines, i.v. infusion, dose rate 75 (μmol/kg/min [sic]).

Each structure is given as a SMILES string. Some results are limits rather than exact numbers.

For the molecule `CS(=O)(=O)c1cccc(S(=O)(=O)NO)c1` [(2), N-Hydroxy-3-methanesulfonylbenzene-1-sulfonamide], the half-life at 5 μM in data set [1] is roughly 50 min. In addition, in data set [2], the “hemodynamic activity relative to CXL-1020” value is “comparable hemodynamic activity to CXL-1020”; the hemodynamic effects produced result was “significant enhancement of inotropy and lusitropy, and modest reductions in blood pressure”. Also, in data set [3], the “NOAEL (μg/kg/min), microscopic pathology markers” value is given as “≧180 μg/kg/min”.
As to `CS(=O)(=O)c1ccccc1S(=O)(=O)NO` [CXL-1020, N-hydroxy-2-methanesulfonylbenzene-1-sulfonamide], in data set [1], the half-life at 5 μM is 2 min. Moreover, the “HR (% Change from Baseline)” value in data set [2] (heart failure canines, i.v. infusion, dose rate 100 (μmol/kg/min [sic])) is listed as −0.23 ± 2.25%. Also, the “NOAEL (μg/kg/min), microscopic pathology markers” value in data set [3] is reported as less than 3 μg/kg/min.
Turning to `Cc1ccc(S(=O)(=O)NO)o1` [Compound (1), N-Hydroxy-5-methylfuran-2-sulfonamide], the half-life at 5 μM in data set [1] is roughly 68 min. Moreover, in data set [2], the “hemodynamic activity relative to CXL-1020” value is “comparable hemodynamic activity to CXL-1020”; the hemodynamic effects produced result is “significant enhancement of inotropy and lusitropy, and modest reductions in blood pressure”. Also, in data set [2] (setting [4]), the “EDV (% Change from Baseline)” value is recorded as −9 ± 2%, the “ESP (% Change from Baseline)” value is −17 ± 1%, the “ESPVR (% Change from Baseline)” value came to 29 ± 1% and the “HR (% Change from Baseline)” value is −6 ± 2%. Also, in data set [2] (setting [4]), the “PRSW (% Change from Baseline)” value was determined as 22 ± 1%, the “SW (% Change from Baseline)” value is −9 ± 2% and the “Tau (% Change from Baseline)” value is −16 ± 4%. Also, the “NOAEL (μg/kg/min), microscopic pathology markers” value in data set [3] is reported as “≧180 μg/kg/min”.
